The structures appear in SMILES notation.

One may read the IC50 as the point on the concentration scale where inhibition reaches its midpoint.

activated ERK2, sequence (P28482 whole entry): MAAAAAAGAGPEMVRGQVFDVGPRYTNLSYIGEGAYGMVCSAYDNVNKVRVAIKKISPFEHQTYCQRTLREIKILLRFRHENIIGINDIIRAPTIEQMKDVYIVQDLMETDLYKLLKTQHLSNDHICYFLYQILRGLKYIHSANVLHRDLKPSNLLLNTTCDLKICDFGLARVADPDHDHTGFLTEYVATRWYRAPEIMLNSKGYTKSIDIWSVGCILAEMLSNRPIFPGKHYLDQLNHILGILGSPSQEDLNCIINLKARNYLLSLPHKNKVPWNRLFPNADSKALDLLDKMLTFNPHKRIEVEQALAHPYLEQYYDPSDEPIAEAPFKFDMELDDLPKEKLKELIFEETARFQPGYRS

In this experiment the target is activated ERK2 (Homo sapiens (Human), UniProt P28482). The experiment in a line: Activated ERK2 (20 pM) Kinase Assay (AlphaScreen, ERKtide phosphorylation). Type of experiment: biochemical. Conditions: 0.02 nM ERK2, 400 nM ERKtide peptide, 35 μM ATP, 30 min preincubation. On the procedure:
Activated ERK2 (20 pM) Kinase Assay:
The assay was carried out in 20 mM HEPES [pH 7.5], 5 mM MgCl2, 1 mM DTT, 0.01% Tween-20, 0.05% BSA using 0.02 nM ERK2, 400 nM ERKtide peptide and 35 μM ATP (all concentrations are final in the reaction) in a total volume of 10.25 μL. […] Compound dilution series were prepared in 100% DMSO. ERK2 was preincubated with compounds for 30 minutes at ambient temperature. Reaction was initiated by addition of a substrate cocktail of ERKtide peptide and ATP and was allowed to proceed for 4 hours at ambient temperature. Reaction was terminated by addition of 10 μL of a 2× stop buffer consisting of 100 mM Tris-Cl [pH 7.5], 25 mM EDTA, 0.01% Tween 20, 20 μg/mL of AlphaScreen Protein A Acceptor Beads, 20 μg/mL of Streptavidin Donor Beads (PerkinElmer, Waltham, Mass.), and 1:1000 dilution phospho-EGF Receptor (Thr669) antibody (Cat #8808, Cell Signaling Technology, Danvers, Mass.). Terminated reactions were read, after overnight incubation in the dark, on an EnVision Multilabel Plate Reader (PerkinElmer, Waltham, Mass.), with excitation and emission wavelengths set to 680 nm and 570 nm, respectively. IC50 values were determined using a four-parameter fit.
Background: Alpha assays give light when donor and acceptor beads are brought close together.
In turn, `Nc1ncc([C@H]2CCC[C@@H](O)C2)nc1-c1ccc(C(=O)N[C@H](CO)c2cccc(Cl)c2)c(F)c1` (single isomer, unassigned) [Example 198] had a concentration for half-maximal inhibition (IC50) of 0.223 nM.
`Nc1ncc([C@H]2CCC[C@@H](O)C2)nc1-c1ccc(C(=O)N[C@H](CO)c2cccc(Cl)c2)c(F)c1` (single isomer, unassigned) [Example 199] returned an IC50 of 0.3 nM.
As for `NC[C@@H](NC(=O)c1ccc(-c2nc(C3CCCC(O)C3)cnc2N)cc1F)c1cccc(Cl)c1` (single isomer, unassigned) [Example 367], the IC50 is 0.15 nM. This IC50 is about 2-fold lower than that of the molecule before.
For `NC[C@@H](NC(=O)c1ccc(-c2nc(C3CCCC(O)C3)cnc2N)cc1F)c1cccc(Cl)c1` (single isomer, unassigned) [Example 368], it took 0.0895 nM to reach half-maximal inhibition (IC50).
For the molecule `NC[C@@H](NC(=O)c1ccc(-c2nc(C3CCCC(O)C3)cnc2N)cc1F)c1cccc(Cl)c1` (single isomer, unassigned) [Example 370], half-maximal inhibition (IC50) required 0.138 nM.
Molecule `NC[C@@H](NC(=O)c1ccc(-c2nc(C3CCCC(O)C3)cnc2N)cc1F)c1cccc(Cl)c1` (single isomer, unassigned) [Example 372] yielded an IC50 of 0.04 nM.
As for `Nc1ncc(C2CCCC(O)C2)nc1-c1ccc(C(=O)N[C@H](CO)c2cc(F)cc(Br)c2)c(F)c1` (single isomer, unassigned) [Example 384], the IC50 was found to be 0.0614 nM.
The value for `Nc1ncc(C2CCCC(O)C2)nc1-c1ccc(C(=O)N[C@H](CO)c2cccc(Br)c2)c(F)c1` (single isomer, unassigned) [Example 385] was 0.122 nM; that for `Nc1ncc(C2CCCC(O)C2)nc1-c1ccc(C(=O)N[C@H](CO)c2cc(F)cc(Br)c2)c(F)c1` (single isomer, unassigned) [Example 386] was 0.0333 nM; that for `Nc1ncc(C2CCCC(O)C2)nc1-c1ccc(C(=O)N[C@H](CO)c2cccc(Br)c2)c(F)c1` (single isomer, unassigned) [Example 389] was 0.0308 nM.
With `Nc1ncc(C2CCCC(O)C2)nc1-c1ccc(C(=O)N[C@H](CO)c2cccc(Cl)c2)c(F)c1` (single isomer, unassigned) [Example 391], the IC50 came to 0.115 nM.
With `Nc1ncc(C2CCCC(O)C2)nc1-c1ccc(C(=O)N[C@H](CO)c2cccc(Cl)c2)c(F)c1` (single isomer, unassigned) [Example 393] the figure was 0.0752 nM; with `CN1C[C@@H](NC(=O)c2ccc(-c3cc(-c4cnn(C)c4)cnc3N)cc2F)[C@H](c2ccc(F)c(Cl)c2)C1` (stereo in doubt) [Example 207, trans-4-(2-amino-5-(1-methyl-1H-pyrazol-4-yl)pyridin-3-yl)-N-((3S,4R)-4-(3-chloro-4-fluorophenyl)-1-methylpyrrolidin-3-yl)-2-fluorobenzamide], 430 nM.
The molecule `CN1C[C@H](NC(=O)c2ccc(-c3cc(-c4cnn(C)c4)cnc3N)cc2F)[C@@H](c2ccc(F)c(Cl)c2)C1` (stereo in doubt) [Example 208, trans-4-(2-amino-5-(1-methyl-1H-pyrazol-4-yl)pyridin-3-yl)-N-((3R,4S)-4-(3-chloro-4-fluorophenyl)-1-methylpyrrolidin-3-yl)-2-fluorobenzamide] yielded an IC50 of 7440 nM.
With `CN1C[C@@H](NC(=O)c2ccc(-c3cc(-c4cnn(C)c4)cnc3N)cc2F)[C@H](c2ccc(Cl)c(F)c2)C1` (stereo in doubt) [Example 209, trans-4-(2-amino-5-(1-methyl-1H-pyrazol-4-yl)pyridin-3-yl)-N-((3S,4R)-4-(4-chloro-3-fluorophenyl)-1-methylpyrrolidin-3-yl)-2-fluorobenzamide] the figure was 3280 nM; with `CN1C[C@H](NC(=O)c2ccc(-c3cc(-c4cnn(C)c4)cnc3N)cc2F)[C@@H](c2ccc(Cl)c(F)c2)C1` (stereo in doubt) [Example 210, trans-4-(2-amino-5-(1-methyl-1H-pyrazol-4-yl)pyridin-3-yl)-N-((3R,45)-4-(4-chloro-3-fluorophenyl)-1-methylpyrrolidin-3-yl)-2-fluorobenzamide], 10300 nM; with `CO[C@H]1CC[C@H](c2cnc(N)c(-c3ccc(C(=O)N[C@H](CN)c4cccc(Cl)c4)c(F)c3)n2)CC1` [Example 18, N—((S)-2-amino-1-(3-chlorophenyl)ethyl)-4-(3-amino-6-((1r,4S)-4-methoxycyclohexyl)pyrazin-2-yl)-2-fluorobenzamide], 0.0396 nM.
In turn, `C[C@]1(O)CC[C@@H](c2cnc(N)c(-c3ccc(C(=O)N[C@H](CO)c4cccc(Cl)c4)c(F)c3)n2)CC1` [Example 105, 4-(3-amino-6-((1s,4R)-4-hydroxy-4-methylcyclohexy)pyrazin-2-yl)-N-((S)-1-(3-chlorophenyl)-2-hydroxyethyl)-2-fluorobenzamide] returned a 50% inhibitory concentration (IC50) of 2.56 nM. Against the preceding molecule, the IC50 is about 65-fold higher.
The molecule `C[C@]1(O)CC[C@H](c2cnc(N)c(-c3ccc(C(=O)N[C@H](CO)c4cccc(Cl)c4)c(F)c3)n2)CC1` [Example 106, 4-(3-amino-6-((1r,4S)-4-hydroxy-4-methylcyclohexyl)pyrazin-2-yl)-N-((S)-1-(3-chlorophenyl)-2-hydroxyethyl)-2-fluorobenzamide] came in with an IC50 of 1.28 nM.
For `Cc1c(-c2cnc(N)c(-c3ccc(C(=O)N[C@H](CO)c4cccc(Cl)c4)c(F)c3)c2)cnn1C` [Example 133, (S)-4-(2-amino-5-(1-deuterido-methyl, 5-methyl-1H-pyrazol-4-yl)pyridin-3-yl)-N-(1-(3-chlorophenyl)-2-hydroxyethyl)-2-fluorobenzamide], 0.0187 nM corresponded to half-maximal inhibition (IC50).
For `Nc1ncc(C2CCOCC2)nc1-c1ccc(C(=O)N[C@H](CO)c2ccccc2)cc1` [Example 135, (S)-4-(3-amino-6-(2,2,6,6-tetradeuterido-tetrahydro-2H-pyran-4-yl)pyrazin-2-yl)-N-(2-hydroxy-1-phenylethyl)benzamide], half-maximal inhibition (IC50) required 0.631 nM.
Molecule `NC[C@@H](NC(=O)c1ccc(-c2nc(C3CCOCC3)cnc2N)cc1F)c1cccc(Cl)c1` [Example 174, (S)—N-(2-amino-1-(3-chlorophenyl)ethyl)-4-(3-amino-6-(tetrahydro-2H-pyran-4-yl)pyrazin-2-yl)-2-fluorobenzamide] gave an IC50 of 0.021 nM.
For `CNC[C@@H](NC(=O)c1ccc(-c2nc(C3CCOCC3)cnc2N)cc1F)c1cccc(Cl)c1` [Example 176, (S)-4-(3-amino-6-(tetrahydro-2H-pyran-4-yl)pyrazin-2-yl)-N-(1-(3-chlorophenyl)-2-(methylamino)ethyl)-2-fluorobenzamide], it took 0.0282 nM to reach half-maximal inhibition (IC50).
The molecule `Nc1ncc([C@H]2CC[C@H](O)CC2)nc1-c1ccc(C(=O)N[C@H](CO)c2cc(F)cc(CF)c2)c(F)c1` [Example 177, 4-(3-amino-6-((1r,4S)-4-hydroxycyclohexyl)pyrazin-2-yl)-2-fluoro-N—((S)-1-(3-fluoro-5-(fluoromethyl)phenyl)-2-hydroxyethyl)benzamide] came in with an IC50 of 0.0229 nM.
`Nc1ncc([C@H]2CC[C@@H](O)CC2)nc1-c1ccc(C(=O)N[C@H](CO)c2cc(F)cc(CF)c2)c(F)c1` [Example 178, 4-(3-amino-6-((1s,4R)-4-hydroxycyclohexyl)pyrazin-2-yl)-2-fluoro-N—((S)-1-(3-fluoro-5-(fluoromethyl)phenyl)-2-hydroxyethyl)benzamide] had an IC50 of 0.211 nM.

These data come from US9242996B2 (Novartis AG, priority 2013, dated 2016).
